PMC11703669 (Clinical cancer research : an official journal of the …, 2025)

Key:
[1] = tested on: patients with R/R AML and a susceptible IDH1 mutation; conditions: cited from earlier work
[2] = tested on: mutated IDH1; test: Nonclinical pharmacology: inhibition of mutated IDH1; type: biochemical
[3] = molecular target: wild type IDH1 (Homo sapiens, UniProt O75874); test: Nonclinical pharmacology: inhibition of wild type IDH1; type: biochemical
[4] = tested on: mutated IDH2 proteins; test: Nonclinical pharmacology: inhibition of mutated IDH2; type: biochemical
[5] = tested on: cell lines expressing mutated IDH1 proteins (R132H, R132L, R132S, R132G, and R132C); test: 2-HG production in cell lines expressing mutated IDH1 proteins; type: cell-based; conditions: read-out: IC50 for suppression of 2-HG production
[6] = tested on: primary human AML cells; test: Treatment of primary human AML cells; type: cell-based
[7] = tested on: 2-HG plasma concentrations; test: PK/PD analysis of 2-HG plasma concentrations in patients with AML; type: in vivo, human; conditions: 150 mg BID, by the end of the first cycle; %CV 122%
[8] = Clinical pharmacokinetics after oral administration; type: in vivo, human
[9] = Food effect study in healthy subjects; type: in vivo, human; conditions: single 150 mg dose
[10] = molecular target: cytochrome P450 (CYP)3A4 (Homo sapiens, UniProt P08684); test: Metabolism by cytochrome P450 enzymes; type: in vitro ADME; conditions: minor contributions from CYP2C8, CYP2C9, CYP1A2, CYP2C19
[11] = Clinical drug-drug interaction with rifampin or itraconazole; type: in vivo
[12] = tested on: CYP3A4; test: Mechanistic static DDI risk assessment with in vitro data: CYP3A4 induction; type: in vitro ADME; conditions: at the recommended dosage
[13] = tested on: CYP2B6; test: Mechanistic static DDI risk assessment with in vitro data: CYP2B6 induction; type: in vitro ADME; conditions: at the recommended dosage
[14] = tested on: CYP1A2; test: Mechanistic static DDI risk assessment with in vitro data: CYP1A2 induction; type: in vitro ADME; conditions: at the recommended dosage
[15] = tested on: CYP2C8; test: Mechanistic static DDI risk assessment with in vitro data: CYP2C8 induction; type: in vitro ADME; conditions: at the recommended dosage
[16] = tested on: CYP2C9; test: Mechanistic static DDI risk assessment with in vitro data: CYP2C9 induction; type: in vitro ADME; conditions: at the recommended dosage
[17] = tested on: OATP1B1; test: Mechanistic static DDI risk assessment with in vitro data: OATP1B1 inhibition; type: in vitro ADME; conditions: at the recommended dosage
[18] = tested on: CYP2C19; test: Hepatocyte induction study: CYP2C19; type: in vitro ADME
[19] = QTc interval assessment in patients; type: in vivo, human; conditions: elevated exposures under fed condition
[20] = tested on: adult patients with R/R AML harboring an IDH1 R132 mutation; test: Study 2102-HEM-101 pivotal cohort: efficacy; type: in vivo, human
[21] = tested on: rats; type: in vivo; conditions: after 48 hours of exposure to UV light
[22] = tested on: pregnant rats; test: Embryo-fetal development study in rats; type: in vivo
[23] = tested on: pregnant rabbits; test: Embryo-fetal development study in rabbits; type: in vivo
[24] = tested on: patients with R/R AML; conditions: in vivo
[25] = tested on: rats; conditions: rat, in vivo
[26] = tested on: cynomolgus monkeys; conditions: cynomolgus monkey, in vivo
[27] = in vivo
[28] = tested on: patients with R/R AML; test: Study 2102-HEM-101 pivotal cohort: safety
[29] = tested on: adult patients with R/R AML or myelodysplastic syndrome (MDS) harboring an IDH1 R132 mutation; test: Study 2102-HEM-101 dose escalation/expansion portion
[30] = concomitant multiple doses of rifampin, a strong CYP3A inducer

cytochrome P450 (CYP)3A4, sequence (P08684 whole entry): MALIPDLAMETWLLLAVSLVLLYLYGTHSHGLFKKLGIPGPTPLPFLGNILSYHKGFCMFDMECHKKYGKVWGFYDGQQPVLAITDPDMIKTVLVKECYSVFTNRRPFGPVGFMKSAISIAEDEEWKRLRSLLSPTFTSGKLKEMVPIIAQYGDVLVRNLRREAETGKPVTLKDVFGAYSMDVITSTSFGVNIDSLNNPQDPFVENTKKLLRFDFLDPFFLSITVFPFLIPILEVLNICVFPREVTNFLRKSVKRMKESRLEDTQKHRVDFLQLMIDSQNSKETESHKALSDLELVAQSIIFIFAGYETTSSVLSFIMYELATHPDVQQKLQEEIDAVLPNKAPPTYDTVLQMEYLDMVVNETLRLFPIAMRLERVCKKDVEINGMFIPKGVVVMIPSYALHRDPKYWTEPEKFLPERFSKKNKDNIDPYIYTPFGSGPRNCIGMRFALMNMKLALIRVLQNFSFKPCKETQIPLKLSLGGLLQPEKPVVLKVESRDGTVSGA
wild type IDH1, sequence (O75874 whole entry): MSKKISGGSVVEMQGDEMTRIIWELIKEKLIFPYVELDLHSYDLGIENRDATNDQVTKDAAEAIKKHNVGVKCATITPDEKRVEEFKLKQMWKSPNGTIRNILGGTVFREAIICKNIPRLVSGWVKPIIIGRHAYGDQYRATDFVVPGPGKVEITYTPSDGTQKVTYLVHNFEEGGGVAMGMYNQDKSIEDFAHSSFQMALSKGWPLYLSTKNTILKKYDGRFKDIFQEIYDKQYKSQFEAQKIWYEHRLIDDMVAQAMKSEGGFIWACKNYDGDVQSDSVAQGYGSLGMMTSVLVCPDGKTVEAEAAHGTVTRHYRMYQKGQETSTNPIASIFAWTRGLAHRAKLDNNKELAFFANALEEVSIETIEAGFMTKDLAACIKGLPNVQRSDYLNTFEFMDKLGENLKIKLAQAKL

## N#Cc1ccnc(N2C(=O)CC[C@H]2C(=O)N(c2cncc(F)c2)[C@H](C(=O)NC2CC(F)(F)C2)c2ccccc2Cl)c1 [Ivosidenib, ivosidenib]
[1]; R/R AML with susceptible IDH1 mutation
  CR + CRh rate: 33%
[1]
  differentiation syndrome, all grades: 19%
  differentiation syndrome, grade 3 or higher: 13%
  median duration of response: 8.2 months
  rate of conversion of TD to TI: 37%
[1]; patients with R/R AML
  rate of ALT elevation: 15%
  rate of AST elevation: 27%
  rate of all grade QTc prolongation: 26%

## C[C@H](Nc1ccc(C#N)n(C)c1=O)c1cc2cc(Cl)ccc2[nH]c1=O [Olutasidenib, olutasidenib]
[2]
  inhibitory activity against mutated IDH1: inhibited
[3]
  inhibitory activity against wild type IDH1: little or no inhibitory activity
[4]
  inhibitory activity against mutated IDH2 proteins: little or no inhibitory activity
[5]
  IC50: 8 to 116 nM
[6]
  2-HG production: suppressed 2-HG production
  cell differentiation: induced granulocytic/monocytic cell differentiation
  cell proliferation: increased cell proliferation
[7]
  mean reduction of 2-HG plasma concentration: 59.1%
[8]; dose range of 100 to 300 mg
  dose proportionality of Cmax and AUC: increased less than proportionally
[8]; human, in vivo
  time to steady-state plasma levels: ≤ 14 days
[8]; human, plasma, po
  half-life: ~67 h
[8]; oral administration
  time to maximum plasma concentration (Cmax): approximately 4 hours
[9]; CV% 18.3%
  mean increase of AUCinf with a high-fat meal: 83%
[9]; CV% 20.6%
  mean increase of Cmax with a high-fat meal: 191%
[10]
  share of metabolism by CYP3A4: 90%
[11]; concomitant multiple doses of itraconazole, a strong CYP3A and P-gp inhibitor
  differences in PK with itraconazole: No clinically significant differences
[11]; [30]
  decrease of AUC with rifampin: 80%
  decrease of Cmax with rifampin: 43%
[12]
  CYP3A4 induction potential: may induce
[13]
  CYP2B6 induction potential: may induce
[14]
  CYP1A2 induction potential: may induce
[15]
  CYP2C8 induction potential: may induce
[16]
  CYP2C9 induction potential: may induce
[17]
  OATP1B1 inhibition potential: inhibit
[18]
  potential to induce CYP2C19: cannot be ruled out
[19]
  QT prolongation expected under a fed condition: ≤ 30 ms
[20]; 150 mg BID, 147 efficacy-evaluable patients, 95% CI 27-43%
  CR + CRh rate: 35%
[20]; 150mg BID, N=147
  CR + CRh, n (%): 51 (35) n (%)
  CR, n (%): 47 (32) n (%)
  Median DOCR: 28.1 months
  Median DOCRh: 3.6 months
[20]; 150 mg BID, N=147, 95% CI 13.5, NR
  median duration of CR + CRh (DOCR + CRh, duration of response): 25.9 months
[20]; 29 of 86 patients TD at baseline
  conversion from transfusion dependence (TD) to transfusion independence (TI): 34%
[20]; 39/61 patients
  maintenance of TI in patients TI at baseline: 64%
[20]; 41 out of 123 efficacy evaluable subjects, 95% CI 25.1%-42.4%
  CR + CRh rate at interim analysis for efficacy: 33%
[20]; sixteen of 147 patients
  patients able to proceed to allogeneic stem cell transplantation after treatment: 11%
[21]
  phototoxicity finding: erythema in the skin
[22]
  embryo-fetal development findings: embryo-fetal death and altered fetal growth
[23]
  embryo-fetal development findings: embryo-fetal death and altered fetal growth
[24]; human
  Abdominal Pain, Any Grade: 28 (18)
  Abdominal Pain, Grade ≥3: 1 (1)
  Arthralgia, Any Grade: 43 (28)
  Arthralgia, Grade ≥3: 4 (3)
  Constipation, Any Grade: 39 (26)
  Constipation, Grade ≥3: 0
  Cough, Any Grade: 26 (17)
  Cough, Grade ≥3: 1 (1)
  Diarrhea, Any Grade: 31 (20)
  Diarrhea, Grade ≥3: 2 (1)
  Differentiation Syndrome, Any Grade: 25 (16)
  Differentiation Syndrome, Grade ≥3: 13 (8)
  Dyspnea, Any Grade: 37 (24)
  Dyspnea, Grade ≥3: 4 (3)
  Edema, Any Grade: 27 (18)
  Edema, Grade ≥3: 4 (3)
  Fatigue/Malaise, Any Grade: 55 (36)
  Fatigue/Malaise, Grade ≥3: 2 (1)
  Grade 3 or higher adverse reaction: dyspnea: 5%
  Grade 3 or higher adverse reaction: hypertension: 5%
  Grade 3 or higher adverse reaction: leukocytosis: 9%
  Grade 3 or higher adverse reaction: transaminitis: 12%
  Grade 3 or higher differentiation syndrome: 8%
  Headache, Any Grade: 19 (13)
  Headache, Grade ≥3: 0
  Hypertension, Any Grade: 16 (10)
  Hypertension, Grade ≥3: 7 (5)
  Leukocytosis, Any Grade: 38 (25)
  Leukocytosis, Grade ≥3: 14 (9)
  Mucositis, Any Grade: 35 (23)
  Mucositis, Grade ≥3: 5 (3)
  Nausea, Any Grade: 57 (38)
  Nausea, Grade ≥3: 0
  Pyrexia, Any Grade: 36 (24)
  Pyrexia, Grade ≥3: 1 (1)
  QTc prolongation TEAE, Grade 3 or higher: 1%
  QTc prolongation TEAE, any grade: 8%
  Rash, Any Grade: 36 (24)
  Rash, Grade ≥3: 2 (1)
  Transaminitis, Any Grade: 31 (20)
  Transaminitis, Grade ≥3: 18 (12)
  Vomiting, Any Grade: 25 (16)
  Vomiting, Grade ≥3: 1 (1)
  differentiation syndrome (DS), all grades: 16%
  dose reductions due to adverse reactions: 11%
  median time to onset of DS: 14 days
  median time to onset of transaminitis: 1.2 months
  median time to resolution of transaminitis: 12 days
  patients who discontinued therapy due to an AR: 8%
  patients with DS who had olutasidenib held: 44%
  patients with DS who recovered after treatment or dosage interruption: 76%
  patients with a Grade 3 or 4 TEAE: 84%
  patients with a Grade 3 or 4 hepatotoxicity TEAE: 13%
  patients with dose held due to QTc prolongation: 1%
  patients with therapy discontinued due to a hepatobiliary AR: 5%
  patients with therapy reduced due to a hepatobiliary AR: 6%
  patients with treatment interrupted due to an AR: 32%
  rate of ALT elevation: 46%
  rate of AST elevation: 47%
  treatment discontinuation due to DS: 3%
  treatment discontinuation due to gallbladder disorders: 1%
  treatment discontinuation due to transaminitis: 3%
  treatment interruption due to DS: 7%
  treatment interruption due to transaminitis: 10%
[24]
  Hy's Law cases: no confirmed Hy’s Law cases
  patients with dose reduced or discontinued due to QTc prolongation: no patients
[25]
  general toxicology findings: altered glucose and lipid metabolism, inflammation, and the GI tract, liver, kidney, and cardiovascular system as the main organs of toxicity
[26]
  general toxicology findings: altered glucose and lipid metabolism, inflammation, and the GI tract, liver, kidney, and cardiovascular system as the main organs of toxicity
[27]
  tissue distribution: binding of olutasidenib to melanin-containing tissues
[28]; 2 deaths, of on treatment deaths
  deaths due to complications from DS: 4%
[28]; 13 patients
  30-day mortality: 8%
[28]; 45 deaths
  deaths on treatment (on or within 28 days of the last dose): 29%
[28]; 101 of 153 patients
  total deaths: 66%
[28]; thirty-seven of 45 on treatment deaths
  on treatment deaths due to underlying AML or complications from AML: 82%
[29]; 150mg BID, dose escalation/expansion portion, 5/13 patients
  patients with CR, CRh or CRi (preliminary efficacy): 38%
[29]; dose escalation
  dose-limiting toxicities: no dose-limiting toxicities observed
